Experimental data: US9492403B2, “Method of treating overactive bladder, not due to cancer, by administering at least one jasmonate” (Broady Health Sciences, LLC, priority 2010, dated 2016)

Test: Study in five subjects with urinary bladder dysfunction symptoms taking Jasmone once a day for 30 days
Format: in vivo, human
Description: Five subjects, 4 male and 1 female agreed to participate in the study. Subjects ranged in age from 55-73 with average age being 67. All participants experienced noticeable urinary bladder dysfunction symptoms including frequency, urgency, and reduced urine flow. Subjects took from 50 to 100 micrograms of Jasmone once a day for 30 days. At two weeks approximately ½ of the subjects experienced improved bladder function. […] For example, several subjects noted that before treatment they averaged 2 night time awakenings to urinate which was reduced to 1 or 0 subsequent to taking Jasmone. Other subjects had even greater improvement from an average of 3-4 night awakenings to urinate to 1. […] In addition several male subjects reported increased flow of discharge up to 100%.

For `CC/C=C\CC1=C(C)CCC1=O` [Jasmone], the “reduction of daytime bathroom visits” value (50 to 100 micrograms once a day for 30 days) was “approximately 50%”, the “fraction of subjects who experienced improved bladder function” value (at two weeks, 50 to 100 micrograms of Jasmone once a day, five subjects aged 55-73) was “approximately ½” and the “subject-reported improvements in frequency, urgency, and urine flow” value (by day thirty, 50 to 100 micrograms once a day) was “all subjects reported improvements in frequency, urgency, and urine flow”. The “night awakenings to urinate after treatment” value (other subjects, average of 3-4 before treatment) was 1, the “increased flow of discharge” value (several male subjects) was “up to 100%” and the “"holding time" (urgency) after treatment” value (several patients, from approximately 10 minutes before treatment, i.e. during extended air travel) was roughly 60 min.
